We go through eight molecules from patent publication US10920198B2, “Delta133p53beta and delta133p53gamma isoforms are biomarkers of cancer stem cells” (Centre National de la Recherche Scientifique (CNRS), priority 2015, dated 2021).

The subject of series [1] is c-Myc, Sox 2, Oct 3/4 and Nanog. Kind of series: Expression of pluripotency/reprogramming factors in MCF-7 cells (RT-qPCR, western blot). The format is cell-based, human. The following applies: for c-Myc expression / expression of Oct 3/4, Nanog and Sox 2: MCF-7 cells after transduction, mRNA and/or protein. An excerpt:
(§1) The following antibodies were used for immunoblotting: anti-c-Myc (9E10 mouse hybridoma clone), -Nanog (sc-81961, Santa Cruz Biotechnology), -Oct 3/4 (sc-8630, Santa Cruz Biotechnology), -Sox 2 (sc-17320, Santa Cruz Biotechnology), -p53 (DO-1; sc-126 Santa Cruz Biotechnology), -p53 Sapu (Vojtesek et al. 1995), -α-tubulin (clone DM1A, Sigma-Aldrich), -β-actin (clone AC-74 Sigma-Aldrich), -p21 (sc-397 Santa Cruz Biotechnology) and -Flag (clone M2; Sigma-Aldrich). Secondary HRP-conjugated antibodies were from GE Healthcare. For luminescence quantification, cells were serially diluted and incubated with 0.5 mM D-luciferin (Sigma). Luminescence was quantified with a Polarstar Omega instrument (BMG LABTECH).
(§2) Total RNA was extracted (Qiagen) and reverse transcription (RT) was performed with 1-5 μg of total RNA using the SuperScript® III Reverse Transcriptase (Life Technologies) at 50° C. Levels of different mRNAs were quantified by real-time qPCR on a LightCycler480 apparatus (Roche). Briefly, 20 ng cDNA was amplified using 0.168 μM of each primer, 0.2 μM of probe (Table 4) and 1× LightCycler® 480 Probes Master Mix (Roche) for the p53 isoforms, or commercially available primers (Qiagen) and 1× LightCycler® 480 Sybr Green Master Mix (Roche) for the other genes. Data were normalized to the internal standard TBP. The different primers used and their corresponding sequences have been previously described (Bourdon et al., 2005). For each single-well amplification reaction, a threshold cycle (Ct) was calculated by using the LightCycler480 program (Roche) in the exponential phase of amplification. Relative changes in gene expression were determined using the 2ΔΔCt method and reported relative to a control. All quantification studies were performed with at least three independent experiments, repeated twice, for each condition. Data are presented as the arithmetic mean±SEM.

Series [2] relates to MCF-7 cells. Kind of series: Mammosphere formation in MCF-7 cells. The class given is cell-based, human. The following applies: for mammosphere formation: MCF-7 cells after transduction, compared to control cells. As to the method: (§3) For mammosphere formation, 1000 cells/ml (500 cells/well) were plated in Ultra Low Cluster Plate, 24-well, Flat Bottom (Corning Inc) with MammoCult™ Medium enriched with MammoCult™ Proliferation Supplements, hydrocortisone and heparin (Stem Cell Technologies) and cultured for 15 days. For all mammosphere assays, at least three independent experiments for each condition were carried out and repeated 8-12 times. For self-renewal experiments, transfected cells were subjected to a first cycle of mammosphere formation. Upon 15 days of culture the created mammospheres were dissociated and cells were re-plated in identical conditions as for the first plating.

For series [3], the system named is Δ133p53 (α, β and γ) isoforms. Kind of series: Expression of Δ133p53 isoforms in MCF-7 cells (RT-qPCR, western blot). To be noted: MCF-7 cells after transduction; RT-qPCR. The class given is cell-based, human.
Text: as §1
Total RNA was extracted (Qiagen) and reverse transcription (RT) was performed with 1-5 μg of total RNA using the SuperScript® III Reverse Transcriptase (Life Technologies) at 50° C. Levels of different mRNAs were quantified by real-time qPCR on a LightCycler480 apparatus (Roche). […] For each single-well amplification reaction, a threshold cycle (Ct) was calculated by using the LightCycler480 program (Roche) in the exponential phase of amplification. Relative changes in gene expression were determined using the 2ΔΔCt method and reported relative to a control. All quantification studies were performed with at least three independent experiments, repeated twice, for each condition. […]
In general terms: In qPCR the cycle at which signal appears reflects the starting amount.

The test system of series [4] is MCF-7 cells. Kind of series: Flow cytometry of CD44/CD24 double labeling in MCF-7 cells. The following applies: MCF-7 cells after transduction. The class given is cell-based, human. How it is done: (§4) Single cell suspensions were labeled on ice with CD24-FITC, CD44-PE and their respective isotype controls (BioLegend) at the dilutions indicated by the manufacturer in Phosphate Buffered Saline (PBS) with 10% FBS for 30 min. Cells were then washed once with PBS and re-suspended in PBS/10% FBS. All samples were analyzed on a CyAn analyzer ([…] Coulter, Inc) using Sytox Blue (Life Technologies) to monitor cell viability.

The subject of series [5] is MDA-MB-231 D3H2LN cells. Briefly: Mammosphere formation in MDA-MB-231 D3H2LN cells. The format is cell-based, human. The following applies: overexpression. As to the method: as §3
The test system of series [6] is c-Myc, Oct 3/4, Nanog and Sox 2. Kind of series: Expression of pluripotency/reprogramming factors in MDA-MB-231 D3H2LN cells (RT-qPCR, western blot). The format is cell-based, human. The following applies: D3H2LN cells, overexpression. How it is done:
The human breast cancer cell lines MCF-7, MDA-MB 231 D3H2LN and C3LND were grown in MEM supplemented with 10% FCS, sodium pyruvate and glutamine. Following viral infection, cells were used after 24-48 h or subjected to selection with 2 μg/ml puromycin (InvivoGen) or 300 μg/ml hygromycin B (Invitrogen) for two days. Etoposide treatment was performed with final doses of 12.5, 25 and 50 ng/ml for 16 h or 50 ng/ml/day for 7 days.
as §1, §2

Series [7] has the same test system. Kind of series: RT-qPCR of pluripotency/reprogramming factors in MDA-MB-231 C3LND cells. The following applies: C3LND cells after transduction. The format is cell-based, human. How it is done:
as §2

Series [8] relates to SW480 colon carcinoma cells. Kind of series: Colosphere formation in SW480 colon carcinoma cells. The class given is cell-based, human. To be noted: compared to control shLuc. How it is done: as §3
The same protocol has been used with human colon carcinoma cell line SW480.

For series [9], the system named is C3LND cancer cells. Briefly: Distant metastasis after intracardiac injection of C3LND cells in athymic mice (bioluminescence). The class given is in vivo. To be noted: transduced C3LND cells, compared to control cells. How it is done:
All in vivo experiments were performed in compliance with the French regulations and ethical guidelines for experimental animal studies in an accredited establishment (Agreement No. C34-172-27). 2.10^6 control or Sh3-treated C3LND cancer cells were grafted in 6 week-old female athymic mice (Harlan, Le Malourlet, France) by intracardiac injection (n=5-7/group). Bioluminescence detection was used to monitor tumor growth and distal metastasis formation in head and legs. Regions of interest (ROI) were delineated around the tumor sites and the total flux (ph/s) in the ROI was measured.

Series [10] relates to MDA-MB-231 C3LND cells. Kind of series: Flow cytometry of CD44/CD24 double labeling in MDA-MB-231 C3LND cells. The format is cell-based, human. The following applies: C3LND cells after transduction. How it is done: as §4
On the technique in general: A flow cytometer gives signals particle by particle.

For series [11], the system named is MDA-MB-231 C3LND cells. Briefly: Mammosphere formation in MDA-MB-231 C3LND cells. To be noted: C3LND cells after transduction. The format is cell-based, human. As to the method: as §3

As for “Sh4: shRNA, 5′-CTTGTGCCCTGACTTTCAA-3′ (SEQ ID NO: 15); targets the 5′ UTR of the Δ133 isoforms (α, β and γ) (target site or template, no part of the molecule; short hairpin RNA, only the targeted sequence is given, further chemistry not given here)”, in series [1], the c-Myc expression result was “not affected”; the “expression of Oct 3/4, Nanog and Sox 2” value was “significantly down-regulated”. In series [2], the mammosphere formation entry was “significantly reduced”.

Consider “Sh1: shRNA, 5′-GACTCCAGTGGTAATCTAC-3′ (SEQ ID NO: 13); knocks down all p53 isoforms (target site or template, no part of the molecule; short hairpin RNA, only the targeted sequence is given, further chemistry not given here)”, for which, in series [1], the c-Myc expression result was “no effect”; the “expression of Oct 3/4, Nanog and Sox 2” value is “no effect”. Further, in [2], the mammosphere formation result is listed as “significant reduction”.

As for “Sh5: shRNA, 5′-GGACCAGACCAGCTTTCA-3′ (SEQ ID NO: 16); targets the 3′ end of the β isoforms (target site or template, no part of the molecule; short hairpin RNA, only the targeted sequence is given, further chemistry not given here)”, in series [2], the mammosphere formation result was “significantly reduced”.

For the molecule “Sh2: shRNA, 5′-GTCCAGATGAAGCTCCCAGAA-3′ (SEQ ID NO: 18); targets the long TAp53 and Δ40p53 isoforms (target site or template, no part of the molecule; short hairpin RNA, only the targeted sequence is given, further chemistry not given here)”, the “expression of the Δ133 isoforms” value in series [3] is on record as “increased”. Also, the “proportion of CD44+/CD24− cells” value in series [4] is “not affected”. In series [1], the c-Myc expression entry is listed as “but not of c-Myc”; the “expression of Oct 3/4, Nanog and Sox 2” value was “increased expression”. The mammosphere formation entry in series [2] is given as “no effect”.

Consider “Sh6: shRNA, 5′-GTGAGCGCTTCGAGATGTT-3′ (SEQ ID NO: 19); targets the 3′ end of the α isoforms (target site or template, no part of the molecule; short hairpin RNA, only the targeted sequence is given, further chemistry not given here)”, for which the mammosphere formation result in [2] is recorded as “did not affect”.

Take “Δ133p53β: human p53 isoform (SEQ ID NO: 1), overexpressed from pMSCVhyg retroviral vector”: in series [1], the c-Myc expression entry is “but not of c-Myc”; the “expression of Oct 3/4, Nanog and Sox 2” value is on record as “significant increase”. Also, in series [2], the mammosphere formation result is given as “significantly promoted”. Also, the “mammosphere formation after harvesting and re-plating of primary mammospheres” value in series [2] (MCF-7 cells overexpressing the isoform, self-renewal) is given as “higher”. Besides, in series [5], the mammosphere formation result was “significant increase”. In [6], the “Oct 3/4, Nanog and Sox 2 expression” value was “significant increase”; the c-Myc level entry is reported as “not affected”. Moreover, the “Oct 3/4, Nanog and Sox 2 expression” value in series [7] is “increased”.

Turning to “Sh3: shRNA, 5′-GGAGGTGCTTACACATGTT-3′ (SEQ ID NO: 14); targets the 5′ UTR of the Δ133 isoforms (α, β and γ) (target site or template, no part of the molecule; short hairpin RNA, only the targeted sequence is given, further chemistry not given here)”, the colospheres formation entry in [8] is “significantly reduced”. In series [1], the c-Myc expression result is “not affected”; the “expression of Oct 3/4, Nanog and Sox 2” value was “significantly down-regulated”. Also, in series [1] (MCF-7 cells, both etoposide treated and untreated), the “Oct 3/4, Nanog and Sox 2 expression” value is on record as “reduced”. For the same molecule, the “metastasis to distant sites” value in series [9] was “less prone to metastasize to distant sites”. Besides, the “proportion of CD44+/CD24− cells” value in series [10] is given as “decreased”. Moreover, the mammosphere formation result in series [2] is recorded as “significantly reduced”. Further, in [11], the sphere formation result is “significant reduction”. In [7], the “Oct 3/4, Nanog and Sox 2 expression” value is on record as “marked decrease”; the c-Myc level result is on record as “small increase”.

B1: Δ133p53γ: human p53 isoform (SEQ ID NO: 3), overexpressed from pMSCVhyg retroviral vector (protein, listed as Homo sapiens)
chain: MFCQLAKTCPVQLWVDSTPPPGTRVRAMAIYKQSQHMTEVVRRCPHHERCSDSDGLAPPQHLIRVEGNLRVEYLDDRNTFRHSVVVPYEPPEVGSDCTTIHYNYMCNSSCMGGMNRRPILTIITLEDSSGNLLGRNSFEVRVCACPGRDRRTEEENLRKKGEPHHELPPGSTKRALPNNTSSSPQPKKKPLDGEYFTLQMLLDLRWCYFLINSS
modifications: SITE (1)..(214) Homo sapiens tumor protein p53, isoform delta133p53gamma (Genbank NP_001119589.1)
Take B1: the mammosphere formation entry in [2] was “milder effect”.
